# Reference: US9790233B2, “Compositions and methods of modulating 15-PGDH activity” (CASE WESTERN RESERVE UNIVERSITY, priority 2012, dated 2017)
# Where two headings read alike, the source gives them in different places.
# Columns and labels:
# Type in all cases: cell-based
# [1] = system: 15-PGDH luciferase fusion construct in Vaco503 reporter cell line; experiment: 15-PGDH-luciferase fusion gene reporter induction, V503 cells; conditions: read-out: V503 reporter activity ([…]), […]
# [2] = system: 15-PGDH luciferase fusion construct in LS174T reporter cell line; experiment: 15-PGDH-luciferase fusion gene reporter induction, LS174T cells; conditions: Homo sapiens
# [3] = system: 15-PGDH luciferase fusion construct in V9m reporter cell line; experiment: 15-PGDH-luciferase fusion gene reporter induction, V9m cells; conditions: read-out: V9M reporter activity ([…]), […]
# [4] = % induction over basal level, Table 17, read-out: V503 reporter activity (2.5 μM)
# [5] = % induction over basal level, Table 17, read-out: V503 reporter activity (7.5 μM)
# [6] = read-out: LS174T reporter activity ([…]), […], % induction over basal level, Table 17, read-out: LS174T reporter activity (2.5 μM)
# [7] = read-out: lS174T reporter activity ([…]), […], % induction over basal level, Table 17, read-out: lS174T reporter activity (7.5 μM)
# [8] = % induction of luciferase activity over basal level, Table 17, read-out: V9M reporter activity (2.5 μM)
# [9] = % induction over basal level, Table 17, read-out: V9M reporter activity (7.5 μM)
# [10] = % increased luciferase activity over basal level, read-out: V503 reporter activity (2.5 uM)
# [11] = % increased luciferase activity over basal level, read-out: V503 reporter activity (7.5 uM)
# [12] = read-out: LS174T reporter activity ([…]), […], % increased luciferase activity over basal level, read-out: LS174T reporter activity (2.5 uM)
# [13] = read-out: LS174T reporter activity ([…]), […], % increased luciferase activity over basal level, read-out: LS174T reporter activity (7.5 uM)
# [14] = % increased luciferase activity over basal level, 100 = doubling, read-out: V9M reporter activity (2.5 uM)
# [15] = % increased luciferase activity over basal level, 100 = doubling, read-out: V9M reporter activity (7.5 uM)
SMILES,"activation at […] [1, 4] [%]","activation at […] [1, 5] [%]","activation at […] [2, 6] [%]","activation at […] [2, 7] [%]","activation at […] [3, 8] [%]","activation at […] [3, 9] [%]","activation at […] [1, 10] [%]","activation at […] [1, 11] [%]","activation at […] [2, 12] [%]","activation at […] [2, 13] [%]","activation at […] [3, 14] [%]","activation at […] [3, 15] [%]"
COc1ccc(N(CC(=O)N/N=C/c2cccnc2)S(=O)(=O)c2ccccc2)c(OC)c1 [compound 396087],17.2,30.8,4.37,10.2,-8.51,10.1,,,,,,
CCOC(=O)c1sc2nc(-c3ccccc3)cc(-c3ccccc3)c2c1N [compound 405320],,,,,,,-7.73,-33.7,9.95,-2.57,8.77,-15.4
CCc1ccccc1NC(=O)CN(c1ccc(OC)cc1OC)S(=O)(=O)c1ccccc1 [compound 407572],17.2,35.9,2.22,6.94,-8.45,-6.12,,,,,,
COc1ccc(N(CC(=O)Nc2cccc(Cl)c2)S(=O)(=O)c2ccc(OC)c(OC)c2)cc1 [compound 408961],11.7,17.6,2.46,-4.51,-12.4,0.56,,,,,,
CCOC(=O)c1sc2nc(-c3cccs3)cc(-c3ccc(F)cc3)c2c1N [compound 413423],,,,,,,7.89,3.13,3.41,3.91,-5.65,-8.76
O=C(CN(c1ccc(F)cc1)S(=O)(=O)c1ccccc1)Nc1cccnc1 [compound 414177],-2.8,-5.73,9.51,-0.62,10.6,7.72,,,,,,
O=C(CN(c1ccccc1)S(=O)(=O)c1ccccc1)Nc1ccccn1 [compound 414183],11.5,37.2,5.35,-4.77,-9.15,-3.89,,,,,,
COc1ccc(OC)c(NC(=O)CN(c2ccc([N+](=O)[O-])cc2)S(=O)(=O)c2ccccc2)c1 [compound 414195],13.1,19.5,-1.15,2.34,-13.9,-16.8,,,,,,
COc1ccc(S(=O)(=O)N(CC(=O)Nc2ccccc2)c2ccccc2)cc1 [compound 474738],17,24.6,-0.36,3.5,-7.27,3.48,,,,,,
COc1ccc(NC(=O)CN(c2ccccc2)S(=O)(=O)c2ccccc2)cc1 [compound 474759],-5.04,-12.7,5.54,-0.03,2.58,6.4,,,,,,
COc1ccc(OC)c(N(CC(=O)Nc2ccccc2F)S(=O)(=O)c2ccccc2)c1 [compound 503270],29.9,42.1,12.3,32.8,-4.47,24.1,,,,,,
COc1ccccc1N(CC(=O)Nc1ccc(F)c(Cl)c1)S(=O)(=O)c1ccccc1 [compound 537833],42.3,73.2,4.94,9.04,-7.54,-7.44,,,,,,
COc1ccc(N(CC(=O)Nc2ccc(C(C)=O)cc2)S(=O)(=O)c2ccccc2)cc1Cl [compound 539430],38.8,103,5.62,10.4,21.3,21.4,,,,,,
O=C(CN(c1ccccn1)S(=O)(=O)c1ccccc1)Nc1ccccc1 [compound 543512],-4.56,-4.26,18.1,8.33,36.8,79.6,,,,,,
COc1ccc(S(=O)(=O)N(CC(=O)Nc2ccc(Cl)cc2Cl)c2ccccc2)cc1 [compound 543716],-8.04,-8.6,3.26,-2.08,4.2,-0.14,,,,,,
COc1ccc(N(CC(=O)Nc2ccc(C(=O)O)cc2)S(=O)(=O)c2ccccc2)cc1 [compound 742790],5.94,34.4,12.8,17.3,13.8,23.1,,,,,,
CCOc1ccccc1N(CC(=O)Nc1ccccc1Br)S(=O)(=O)c1ccc(C)cc1 [compound 771074],23,39.5,20.7,20.6,13.5,24.7,,,,,,
COc1ccc(OC)c(N(CC(=O)Nc2ccccc2Br)S(=O)(=O)c2ccc(C)cc2)c1 [compound 771132],24.8,40.8,14,13.5,-2.26,12.2,,,,,,
COc1ccc(N(CC(=O)Nc2ccccc2Br)S(=O)(=O)c2ccc(C)cc2)c(OC)c1 [compound 771138],34.4,72.6,13.6,9.23,-4.36,6.75,,,,,,
COc1ccc(OC)c(N(CC(=O)Nc2ccc(I)cc2)S(=O)(=O)c2ccc(C)cc2)c1 [compound 771146],-49.7,-86.6,-31.6,-68.8,-38.1,-78.3,,,,,,
COc1ccc(N(CC(=O)Nc2ccc(Br)cc2)S(=O)(=O)c2ccccc2)c(OC)c1 [compound 785161],56.7,-52.5,10.7,-41.9,0.54,3.48,,,,,,
COc1ccc(OC)c(N(CC(=O)Nc2cccc(Cl)c2)S(=O)(=O)c2ccc(OC)c(OC)c2)c1 [compound 785254],16.1,28.3,2.93,4.29,-16.1,-8.48,,,,,,
COc1ccc(N(CC(=O)Nc2ccc(CC#N)cc2)S(=O)(=O)c2ccccc2)cc1Cl [compound 919576],49.2,73.7,17.5,30.7,49.9,63,,,,,,
COc1ccc(NC(=O)CN(c2ccccc2OC)S(C)(=O)=O)cc1 [compound 920847],-4.47,-10.6,6.18,2.97,9.26,17.7,,,,,,
COc1ccc(OC)c(N(CC(=O)Nc2ccccc2Br)S(=O)(=O)c2ccc(OC)c(OC)c2)c1 [compound 924740],20.2,52.2,7.69,16.7,-0.54,6.33,,,,,,
